Data from patent US9783536B2, “Nitrogen-containing heterocyclic compound or salt thereof” (FUJIFILM Corporation, priority 2013, dated 2017).
Read-outs that look alike come from different tables or passages of the source.

Assays:
[1] = target: T1, GST fusion human ERK2 protein (Homo sapiens, UniProt P28482); test: ERK2 enzyme assay (2); format: biochemical; details: read-out: ERK2 enzyme inhibitory activity (2)
T1 construct: purchased Carna Biosciences, Inc; host or cells: E. coli expression system
T1 sequence (P28482 whole entry, the tested form may be a part): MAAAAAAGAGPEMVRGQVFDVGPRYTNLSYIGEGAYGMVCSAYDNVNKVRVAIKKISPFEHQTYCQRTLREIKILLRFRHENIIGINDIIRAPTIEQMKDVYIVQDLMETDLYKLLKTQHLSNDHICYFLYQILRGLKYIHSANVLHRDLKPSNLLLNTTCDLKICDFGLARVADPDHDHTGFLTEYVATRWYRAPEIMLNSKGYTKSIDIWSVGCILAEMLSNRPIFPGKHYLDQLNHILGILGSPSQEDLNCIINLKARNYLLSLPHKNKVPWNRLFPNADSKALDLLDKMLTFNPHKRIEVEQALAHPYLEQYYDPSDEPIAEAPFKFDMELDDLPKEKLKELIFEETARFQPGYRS
How it was run: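 IC50 values come from mobility-shift measurement of phosphorylated versus unphosphorylated 5-FAM peptide substrate after EDTA quench. Beforehand, compound and 1.25 nmol/L E. coli-expressed GST–human ERK2 stood 15 min at room temperature (pH 7.5), then 1 mmol/L ATP and 4.25 μmol/L substrate (final) were added for 120 min at 25 °C.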

human PI3Kα protein = target: T2, human PI3Kα protein (Homo sapiens, UniProt P42336); test: PI3Kα enzyme assay (ADP-Glo); format: biochemical; details: read-out: PI3Kα enzyme inhibitory activity
T2 construct: purchased Carna Biosciences, Inc; host or cells: baculovirus expression system
T2 sequence (P42336 whole entry): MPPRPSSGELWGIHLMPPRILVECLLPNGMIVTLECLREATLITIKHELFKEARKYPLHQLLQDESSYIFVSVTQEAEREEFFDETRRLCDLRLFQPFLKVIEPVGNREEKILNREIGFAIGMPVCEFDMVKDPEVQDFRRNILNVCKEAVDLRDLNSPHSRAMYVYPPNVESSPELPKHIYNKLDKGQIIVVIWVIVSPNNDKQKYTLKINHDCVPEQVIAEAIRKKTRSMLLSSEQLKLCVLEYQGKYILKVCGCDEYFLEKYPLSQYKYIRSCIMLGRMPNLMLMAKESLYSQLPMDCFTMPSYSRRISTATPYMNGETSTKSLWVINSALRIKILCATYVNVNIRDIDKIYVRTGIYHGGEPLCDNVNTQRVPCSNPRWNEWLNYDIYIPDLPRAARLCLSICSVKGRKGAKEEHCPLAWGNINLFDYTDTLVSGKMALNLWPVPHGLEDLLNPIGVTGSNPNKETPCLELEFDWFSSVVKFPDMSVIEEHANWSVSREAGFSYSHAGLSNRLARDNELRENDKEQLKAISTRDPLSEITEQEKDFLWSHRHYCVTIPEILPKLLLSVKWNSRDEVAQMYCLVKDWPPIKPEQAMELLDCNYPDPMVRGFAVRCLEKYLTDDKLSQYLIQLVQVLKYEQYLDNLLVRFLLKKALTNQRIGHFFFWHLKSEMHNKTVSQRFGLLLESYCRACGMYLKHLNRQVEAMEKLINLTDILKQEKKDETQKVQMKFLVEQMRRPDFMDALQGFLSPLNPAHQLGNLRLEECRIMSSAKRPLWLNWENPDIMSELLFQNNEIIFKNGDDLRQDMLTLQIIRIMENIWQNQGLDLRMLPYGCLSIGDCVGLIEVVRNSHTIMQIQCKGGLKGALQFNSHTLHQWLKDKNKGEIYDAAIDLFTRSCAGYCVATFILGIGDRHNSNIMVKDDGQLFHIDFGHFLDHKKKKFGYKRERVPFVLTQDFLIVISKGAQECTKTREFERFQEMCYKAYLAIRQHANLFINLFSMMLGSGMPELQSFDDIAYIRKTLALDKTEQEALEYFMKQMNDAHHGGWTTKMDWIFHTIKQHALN
T2 sequence (P27986 whole entry partner): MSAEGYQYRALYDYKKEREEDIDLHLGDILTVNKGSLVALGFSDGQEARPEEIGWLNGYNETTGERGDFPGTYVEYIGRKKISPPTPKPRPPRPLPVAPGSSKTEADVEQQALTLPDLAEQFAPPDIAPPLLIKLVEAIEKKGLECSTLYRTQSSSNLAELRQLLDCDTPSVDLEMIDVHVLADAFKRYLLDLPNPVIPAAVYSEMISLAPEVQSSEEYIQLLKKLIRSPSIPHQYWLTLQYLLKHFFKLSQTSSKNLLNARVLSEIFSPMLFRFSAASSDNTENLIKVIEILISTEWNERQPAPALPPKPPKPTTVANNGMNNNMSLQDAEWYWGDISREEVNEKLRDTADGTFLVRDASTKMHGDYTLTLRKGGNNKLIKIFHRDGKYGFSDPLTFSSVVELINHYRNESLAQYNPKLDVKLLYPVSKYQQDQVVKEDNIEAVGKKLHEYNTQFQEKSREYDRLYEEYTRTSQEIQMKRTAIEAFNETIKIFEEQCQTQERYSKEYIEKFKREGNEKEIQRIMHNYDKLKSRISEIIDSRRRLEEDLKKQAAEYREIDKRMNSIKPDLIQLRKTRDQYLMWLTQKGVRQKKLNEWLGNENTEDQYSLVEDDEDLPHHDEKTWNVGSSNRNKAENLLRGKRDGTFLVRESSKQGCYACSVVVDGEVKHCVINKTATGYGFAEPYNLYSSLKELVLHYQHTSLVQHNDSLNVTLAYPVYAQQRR
How it was run: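 Biotinylated human PI3Kα (baculovirus-expressed, 4.5 nmol/L) pre-incubated 15 min with compound in Tris-HCl pH 7.5, MgCl2, BSA; reaction 60 min at 25° C with 50 μmol/L PIP2 and 100 μmol/L ATP final. ADP quantified by ADP-Glo luminescence; IC50 calculated.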

[2] = target: T1, GST fusion human ERK2 protein; test: ERK2 enzyme assay (1); format: biochemical; details: read-out: ERK2 enzyme inhibitory activity (1)
How it was run: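 IC50 derived from the proportion of phosphorylated 5-FAM peptide, separated from unphosphorylated peptide by microfluidic mobility shift. Compound was first preincubated 15 min at room temperature with 2.5 nmol/L kinase at pH 7.5, then 43.1 μmol/L ATP plus 4.25 μmol/L substrate reacted 120 min at 25 °C.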

CHO-K1 cells = test: CHO cell toxicity test; format: cell-based, Chinese hamster; details: Cricetulus griseus; CHO-K1 cells, 24 hours culture with compound, CellTiter-Glo; read-out: IC50 value (concentration at which the number of viable cells was suppressed to 50% or less)
How it was run: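 CHO-K1 cells were cultured 24 h, then exposed 24 h to compound at final 25.00 to 0.20 μmol/L in F-12 with 2% FCS. Viability read by CellTiter-Glo luminescence; inhibition % = 100 − (treated/untreated signal)×100.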

[3] = 4.5 nmol/L PI3Kα, PIP2 50 μmol/L, ATP 100 μmol/L
[4] = 2.5 nmol/L ERK2, ATP 43.1 μmol/L

Compound | IC50 ([1]; 1.25 nmol/L ERK2, ATP 1 mmol/L) [nM] | IC50 (human PI3Kα protein; [3]) [nM] | IC50 [2, 4] [nM] | IC50 ([1]; ERK2 enzyme assay (2)) [nM] | IC50 (human PI3Kα protein) [nM] | IC50 ([2]; ERK2 enzyme assay (1)) [nM] | IC50 (CHO-K1 cells) [nM]
Cc1cnnc(Nc2ccc3ncc(-c4cnn(C)c4)cc3n2)c1 [Example 0139] | < 1000 | < 1000 | < 1000 | – | – | – | ≥ 25000
c1nc2ccc(Nc3cc(C4CCC4)cnn3)nc2cc1-c1cnn(CCCN2CCCC2)c1 [Example 0015, N-(5-cyclobutylpyridazin-3-yl)-7-(1-(3-(pyrrolidin-1-yl)propyl)-1H-pyrazol-4-yl)-1,5-naphthyridine-2-amineformate] | < 1000 | < 1000 | < 1000 | – | – | – | ≥ 25000
Cc1nnc(Nc2ccc3ncc(-c4cnn(C)c4)cc3n2)s1 [Example 0027] | < 1000 | < 1000 | < 1000 | – | – | – | ≥ 25000
Cc1cnnc(Nc2ccc3ncc(-c4cnn(CCCN5CCCC5)c4)cc3n2)c1 [Example 0140] | < 1000 | < 1000 | < 1000 | – | – | – | ≥ 25000
c1nnc(Nc2ccc3ncc(-c4cnn(CCCN5CCCC5)c4)cc3n2)s1 [Example 0322] | – | – | – | < 1000 | < 1000 | < 1000 | ≥ 25000
c1cnnc(Nc2ccc3ncc(-c4cnn(CCCN5CCCC5)c4)cc3n2)c1 [Example 0137, N-(pyridazin-3-yl)-7-(1-(3-(pyrrolidin-1-yl)propyl)-1H-pyrazol-4-yl)-1,5-naphthyridine-2-amine] | < 1000 | < 1000 | < 1000 | – | – | – | ≥ 25000
Cc1nn(CCCN2CCOCC2)cc1-c1cnc2ccc(Nc3cc(C(C)C)cnn3)nc2c1 [Example 0384, N-(5-isopropylpyridazin-3-yl)-7-(3-methyl-1-(3-morpholinopropyl)-1H-pyrazol-4-yl)-1,5-naphthyridine-2-amine] | – | – | – | < 1000 | < 1000 | < 1000 | ≥ 25000
Cn1cc(-c2cnc3ccc(Nc4nnc(N5CCOCC5)s4)nc3c2)cn1 [Example 0226, N-(7-(1-methyl-1H-pyrazol-4-yl)-1,5-naphthyridin-2-yl)-5-morpholino-1,3,4-thiadiazole-2-amine] | – | – | – | < 1000 | 1000 to 10000 | < 1000 | ≥ 25000
CCCCc1nn(C)cc1-c1cnc2ccc(Nc3nnc(C(C)C)s3)nc2c1 [Example 0130] | < 1000 | < 1000 | < 1000 | – | – | – | ≥ 25000
CC(C)c1cnnc(Nc2ccc3ncc(-c4cnn(CCCO)c4)cc3n2)c1 [Example 0473] | – | – | – | < 1000 | < 1000 | < 1000 | ≥ 25000
Cc1c(-c2cnc3ccc(Nc4nnc(C5CCCC5)s4)nc3c2)cnn1C [Example 0348] | – | – | – | < 1000 | 1000 to 10000 | < 1000 | ≥ 25000
COc1cncc(Nc2cnc3ccc(Nc4nnc(CC5CCCO5)s4)nc3c2)c1 (centres unmarked) [Example 0250, N^7-(5-methoxypyridin-3-yl)-N^2-(5-((tetrahydrofuran-2-yl)methyl)-1,3,4-thiadiazol-2-yl)-1,5-naphthyridine-2,7-diamine] | – | – | – | < 1000 | < 1000 | < 1000 | ≥ 25000
COc1c(-c2cnn(C)c2)cnc2ccc(Nc3nnc(C4CCCC4)s3)nc12 [Example 0355, 5-cyclopentyl-N-(8-methoxy-7-(1-methyl-1H-pyrazol-4-yl)-1,5-naphthyridin-2-yl)-1,3,4-thiadiazole-2-amine] | – | – | – | < 1000 | < 1000 | < 1000 | ≥ 25000
CC1(C)COc2nnc(Nc3ccc4ncc(-c5cnn(CCCN6CCCC6)c5)cc4n3)cc21 [Example 0401, 5,5-Dimethyl-N-(7-(1-(3-(pyrrolidin-1-yl)propyl)-1H-pyrazol-4-yl)-1,5-naphthyridin-2-yl)-5,6-dihydrofuro[2,3-c]pyridazine-3-amine] | – | – | – | < 1000 | < 1000 | < 1000 | ≥ 25000
c1nc2ccc(Nc3nnc(CC4CCCO4)s3)nc2cc1-c1cnn(CCCN2CCCC2)c1 (centres unmarked) [Example 0240] | – | – | – | < 1000 | < 1000 | < 1000 | ≥ 25000
CC(C)c1cnnc(Nc2ccc3ncc(-c4cnn(CCCN5CCCC5)c4)cc3n2)c1 [Example 0148] | < 1000 | < 1000 | < 1000 | – | – | – | ≥ 25000
OCC(O)Cn1cc(-c2cnc3ccc(Nc4nnc(C5CCCC5)s4)nc3c2)cn1 (centres unmarked) [Example 0338, 3-(4-(6-((5-Cyclopentyl-1,3,4-thiadiazol-2-yl)amino)-1,5-naphthyridin-3-yl)-1H-pyrazol-1-yl)propane-1,2-diol] | – | – | – | < 1000 | < 1000 | < 1000 | ≥ 25000
CN1CCCC1c1nnc(Nc2ccc3ncc(-c4cnn(C)c4)cc3n2)s1 (centres unmarked) [Example 0247, N-(7-(1-methyl-1H-pyrazol-4-yl)-1,5-naphthyridin-2-yl)-5-(1-methylpyrrolidin-2-yl)-1,3,4-thiadiazole-2-amine] | – | – | – | < 1000 | 1000 to 10000 | < 1000 | ≥ 25000
CC(C)c1cnnc(Nc2ccc3ncc(-c4cnn(CCCN5CCOCC5)c4)cc3n2)c1 [Example 0368] | – | – | – | < 1000 | < 1000 | < 1000 | ≥ 25000
Cc1nn(C)cc1-c1cnc2ccc(Nc3nnc(C4CCCC4)s3)nc2c1 [Example 0347] | – | – | – | < 1000 | < 1000 | < 1000 | ≥ 25000

Now from value to compound, other results behind:

IC50 ([1]; 1.25 nmol/L ERK2, ATP 1 mmol/L) [nM] | IC50 (human PI3Kα protein; [3]) [nM] | IC50 [2, 4] [nM] | IC50 ([1]; ERK2 enzyme assay (2)) [nM] | IC50 (human PI3Kα protein) [nM] | IC50 ([2]; ERK2 enzyme assay (1)) [nM] | Compound | IC50 (CHO-K1 cells) [nM]
– | – | – | < 1000 | < 1000 | < 1000 | O=C(CCn1cc(-c2cnc3ccc(Nc4nnc(C5CCCC5)s4)nc3c2)cn1)N1CCCC1 [Example 0341, 3-(4-(6-((5-cyclopentyl-1,3,4-thiadiazol-2-yl)amino)-1,5-naphthyridin-3-yl)-1H-pyrazol-1-yl)-1-(pyrrolidin-1-yl)propan-1-one] | ≥ 25000
– | – | – | < 1000 | 1000 to 10000 | < 1000 | Cn1cc(-c2cnc3ccc(Nc4nnc(CC5CCCO5)s4)nc3c2)cn1 (centres unmarked) [Example 0241] | ≥ 25000
– | – | – | < 1000 | < 1000 | < 1000 | CN(C)c1cnnc(Nc2ccc3ncc(-c4cnn(CCCN5CCCC5)c4)cc3n2)c1 [Example 0403, N^5,N^5-dimethyl-N^3-(7-(1-(3-(pyrrolidin-1-yl)propyl)-1H-pyrazol-4-yl)-1,5-naphthyridin-2-yl)pyridazine-3,5-diamine] | ≥ 25000
– | – | – | < 1000 | < 1000 | < 1000 | Cn1cc(-c2cnc3ccc(Nc4nnc(C5CCOC5)s4)nc3c2)cn1 (centres unmarked) [Example 0243, N-(7-(1-methyl-1H-pyrazol-4-yl)-1,5-naphthyridin-2-yl)-5-(tetrahydrofuran-3-yl)-1,3,4-thiadiazole-2-amine] | ≥ 25000
– | – | – | < 1000 | < 1000 | < 1000 | Cn1cc(-c2cnc3ccc(Nc4nnc(C5CCCO5)s4)nc3c2)cn1 (centres unmarked) [Example 0227] | ≥ 25000
– | – | – | < 1000 | < 1000 | < 1000 | CC(C)c1cnnc(Nc2ccc3ncc(-c4cnn(CCC(C)(C)O)c4)cc3n2)c1 [Example 0474] | ≥ 25000
– | – | – | < 1000 | < 1000 | < 1000 | CC(C)c1cnnc(Nc2ccc3ncc(-c4cnn(CCN5CCOCC5)c4)cc3n2)c1 [Example 0382, N-(5-isopropylpyridazin-3-yl)-7-(1-(2-morpholinoethyl)-1H-pyrazol-4-yl)-1,5-naphthyridine-2-amine] | ≥ 25000
– | – | – | < 1000 | < 1000 | < 1000 | CC(C)c1nnc(Nc2ccc3ncc(-c4cnn(CCCN5CCCC5)c4)cc3n2)s1 [Example 0365] | ≥ 25000
– | – | – | < 1000 | 1000 to 10000 | < 1000 | Cc1[nH]ncc1-c1cnc2ccc(Nc3nnc(C4CCCC4)s3)nc2c1 [Example 0214] | ≥ 25000
